Measured values published in patent publication US5840697A, “Peptide inhibitors of calmodulin” (Torrey Pines Institute for Molecular Studies, priority 1996, dated 1998).
Like-named read-outs stand apart in the source and are kept apart here. Square brackets hold non-standard residues; d marks the D form. Peptide text beside a SMILES is read from it.

Experiments:
phosphodiesterase = assay: calcium-dependent phosphodiesterase assay in the absence of calmodulin; assay type: biochemical; details: Table III
Protocol: To sample assay tubes were added the following components: assay buffer, 25 ul; CaCl2, 5 ul; 5'-nucleotidase, 7.5 ul (stock solution is 10 units/ml); calmodulin 5 units; calmodulin inhibitor peptides to obtain the desired final concentration of 50 μM. The volume was then made up to 200 ul with water. Control blanks were prepared replacing the peptides with water. The added components were thoroughly mixed and the tubes incubated at 30° C. for 10 min. Then, 25 ul of cAMP at 10.8 mM was added and incubated for 90 min at 30° C. The reaction was stopped by the addition of 50 ul of 55% trichloroacetic acid (TCA). The samples were centrifuged to remove the protein precipitate and the 50 ul of the supernatant was withdrawn for phosphate measurement. To the supernatant aliquot, 50 ul ammonium molybdate (0.55% in 1.1 N sulfuric acid) was added, followed by the addition of 5 ul of reducing agent (24 g sodium bisulfite, 2.4 g sodium sulfite, 0.5 g of 1-amino-2-naphthol-4-sulfonic acid in 200 ml of water), and the contents were mixed by vortexing. The absorbance of the solution were read at 660 nm using water as a blank, identified as control "Calmo."
As described above, one of the undesirable biological effects of existing calmodulin inhibitors is their non-specific binding to other proteins and the like. Therefore, the specificity of the instant inhibitory peptides for calmodulin was examined. The specificity was determined using the calcium-dependent phosphodiesterase assay described in Example I. The assay was carried out for the determination of IC50 values in the presence of calmodulin (IC50 value for calmodulin) and in the absence of calmodulin (IC50 for phosphodiesterase), the latter of which provides the effect of the inhibitory peptides on the phosphodiesterase.

calmodulin = calmodulin (Homo sapiens, UniProt P0DP23); assay: calcium-dependent phosphodiesterase assay (calmodulin activity); assay type: biochemical; details: for calmodulin inhibitory activity, in words: (L)-amino acid peptides of Table II; for SPECIFICITY: comparison of IC50 for phosphodiesterase with IC50 for calmodulin
Protocol: In the calcium dependent phosphodiesterase assay, calmodulin can be assayed by its ability to stimulate phosphodiesterase activity as determined by a two-step assay procedure illustrated by reactions (1) and (2) below. [drawing 1]
During the first step of the assay cyclic adenosine 3'5'-monophosphate (cAMP) is incubated with calcium-activated phosphodiesterase (Cal-PDE), which hydrolyses the 3'bond producing adenosine 5'-monophosphate (5'-AMP). During the second step, 5'-AMP is quantitatively converted into adenosine and inorganic phosphate (Pi) through the action of a 5-nucleotidase. The reaction is followed by the measurement of the Pi formed by reading the absorbance at 660 nm after reacting with ammonium molybdate. The amount of Pi formed is directly related to the phosphodiesterase activity which depends on the level of activation by calmodulin.
To sample assay tubes were added the following components: assay buffer, 25 ul; CaCl2, 5 ul; 5'-nucleotidase, 7.5 ul (stock solution is 10 units/ml); calmodulin 5 units; calmodulin inhibitor peptides to obtain the desired final concentration of 50 μM. The volume was then made up to 200 ul with water. Control blanks were prepared replacing the peptides with water. The added components were thoroughly mixed and the tubes incubated at 30° C. for 10 min. […] The samples were centrifuged to remove the protein precipitate and the 50 ul of the supernatant was withdrawn for phosphate measurement. […] The absorbance of the solution were read at 660 nm using water as a blank, identified as control "Calmo."
The two controls used in the assay, one without and one with calmodulin, as indicated in FIG. 1 and Table I were as follows,: (1) PDE:
These three controls were used in the calcium-dependent phosphodiesterase assay for reproducibility of the assay.
In addition to the calcium-dependent phosphodiesterase assay data, IC50 values were determined for many of the peptides. The assay carried out for the determination in the IC50 values differed from the above screening assay by the concentration of the peptides being tested.
(3) TFP: trifluoperazine; and (4) Calmidasolium: (1-[bis-(4-chlorophenyl)methyl]-3[-2-(2,4-dichlorophenyl)-2[(2,4-dichlorophenyl)methoxy]-ethyl]-1H-imidazolium chloride. The IC50 values were calculated using sigmoidal curve software (Graphpad, ISI; San Diego, Calif.) using the % inhibition at different mixture concentrations (see protocol for determination of % inhibition).
The (L)-amino acid counterpart for five (5) of the all (D)-amino acid peptides identified from the PS-SCL were synthesized in order to study the stereoselectivity of the inhibition.

[1] = Table II, (L)-amino acid peptides, concentrations 0.2 to 50.0 μM, read-out: IC50
[2] = Table I, assayed at 75, 50 and 12.5 μM, average of repeated assays, read-out: Average IC50
[3] = Table III, in the presence of calmodulin, read-out: IC50 (μM) for calmodulin

CC[C@H](C)[C@H](NC(=O)[C@H](CCCNC(=N)N)NC(=O)[C@H](Cc1c[nH]c2ccccc12)NC(=O)[C@H](CC(C)C)NC(C)=O)C(=O)N[C@@H](CC(C)C)C(=O)N[C@@H](CCCNC(=N)N)C(N)=O [Ac-Leu-Trp-Arg-Ile-Leu-Arg-NH2] (Ac-LWRILR-NH2)
IC50 (phosphodiesterase): > 200 µM | calmodulin inhibitory activity, in words (calmodulin): especially high activity | IC50 (calmodulin; [1]): 2.89 µM | SPECIFICITY (calmodulin): > 69

CC[C@@H](C)[C@@H](NC(=O)[C@@H](CCCNC(=N)N)NC(=O)[C@@H](Cc1c[nH]c2ccccc12)NC(=O)[C@@H](CC(C)C)NC(C)=O)C(=O)N[C@H](Cc1c[nH]cn1)C(=O)N[C@H](Cc1c[nH]c2ccccc12)C(N)=O [Ac-(D)Leu-(D)Trp-(D)Arg-(D)Ile-(D)His-(D)Trp-NH2] (Ac-[dL][dW][dR][dI][dH][dW]-NH2)
IC50 (phosphodiesterase): 84 µM | IC50 (calmodulin; [2]): 0.96 µM | IC50 (calmodulin; [3]): 1.2 µM | SPECIFICITY (calmodulin): 69

CC(=O)N[C@@H](CC(C)C)C(=O)N[C@@H](Cc1c[nH]c2ccccc12)C(=O)N[C@@H](CCCNC(=N)N)C(=O)N[C@@H](Cc1c[nH]cn1)C(=O)N[C@@H](CC(C)C)C(=O)N[C@@H](Cc1c[nH]c2ccccc12)C(N)=O [Ac-Leu-Trp-Arg-His-Leu-Trp-NH2] (Ac-LWRHLW-NH2)
IC50 (phosphodiesterase): > 200 µM | calmodulin inhibitory activity, in words (calmodulin): especially high activity | IC50 (calmodulin; [1]): 1.15 µM | IC50 (calmodulin; [3]): 1.1 µM | SPECIFICITY (calmodulin): > 182

CC[C@@H](C)[C@@H](NC(=O)[C@@H](Cc1c[nH]c2ccccc12)NC(=O)[C@@H](CC(C)C)NC(C)=O)C(=O)N[C@H](Cc1c[nH]cn1)C(=O)N[C@H](Cc1c[nH]cn1)C(=O)N[C@H](Cc1c[nH]c2ccccc12)C(N)=O [Ac-(D)Leu-(D)Trp-(D)Ile-(D)His-(D)His-(D)Trp-NH2] (Ac-[dL][dW][dI][dH][dH][dW]-NH2)
IC50 (phosphodiesterase): 30 µM | IC50 (calmodulin; [2]): 8.5 µM | IC50 (calmodulin; [3]): 12 µM | SPECIFICITY (calmodulin): 2.4

CC[C@@H](C)[C@@H](NC(=O)[C@@H](CCC(N)=O)NC(=O)[C@@H](CC(C)C)NC(C)=O)C(=O)N[C@@H](C(=O)N[C@H](CC(C)C)C(=O)N[C@H](Cc1c[nH]c2ccccc12)C(N)=O)[C@H](C)CC [Ac-(D)Leu-(D)Gln-(D)Ile-(D)Ile-(D)Leu-(D)Trp-NH2] (Ac-[dL][dQ][dI][dI][dL][dW]-NH2)
IC50 (phosphodiesterase): 119 µM | IC50 (calmodulin; [2]): 27 µM | IC50 (calmodulin; [3]): 25 µM | SPECIFICITY (calmodulin): 4.8

CC(=O)N[C@H](CC(C)C)C(=O)N[C@H](Cc1c[nH]c2ccccc12)C(=O)N[C@H](CCCNC(=N)N)C(=O)N[C@H](Cc1c[nH]cn1)C(=O)N[C@H](CC(C)C)C(=O)N[C@H](Cc1c[nH]c2ccccc12)C(N)=O [Ac-(D)Leu-(D)Trp-(D)Arg-(D)His-(D)Leu-(D)Trp-NH2] (Ac-[dL][dW][dR][dH][dL][dW]-NH2)
IC50 (phosphodiesterase): 68 µM | IC50 (calmodulin; [2]): 5.9 µM | IC50 (calmodulin; [3]): 6.7 µM | SPECIFICITY (calmodulin): 10

CC[C@@H](C)[C@@H](NC(=O)[C@@H](CCCNC(=N)N)NC(=O)[C@@H](CCC(N)=O)NC(=O)[C@@H](CC(C)C)NC(C)=O)C(=O)N[C@H](CC(C)C)C(=O)N[C@H](CCCNC(=N)N)C(N)=O [Ac-(D)Leu-(D)Gln-(D)Arg-(D)Ile-(D)Leu-(D)Arg-NH2] (Ac-[dL][dQ][dR][dI][dL][dR]-NH2)
IC50 (calmodulin; [2]): 35 µM

CC[C@@H](C)[C@@H](NC(=O)[C@@H](CCC(N)=O)NC(=O)[C@@H](CC(C)C)NC(C)=O)C(=O)N[C@H](Cc1c[nH]cn1)C(=O)N[C@H](CC(C)C)C(=O)N[C@H](Cc1c[nH]c2ccccc12)C(N)=O [Ac-(D)Leu-(D)Gln-(D)Ile-(D)His-(D)Leu-(D)Trp-NH2] (Ac-[dL][dQ][dI][dH][dL][dW]-NH2)
IC50 (calmodulin; [2]): 30 µM

CC[C@@H](C)[C@@H](NC(=O)[C@@H](CCCNC(=N)N)NC(=O)[C@@H](CCC(N)=O)NC(=O)[C@@H](CC(C)C)NC(C)=O)C(=O)N[C@H](CC(C)C)C(=O)N[C@H](Cc1c[nH]c2ccccc12)C(N)=O [Ac-(D)Leu-(D)Gln-(D)Arg-(D)Ile-(D)Leu-(D)Trp-NH2] (Ac-[dL][dQ][dR][dI][dL][dW]-NH2)
IC50 (calmodulin; [2]): 24 µM
